Reference: US20250380696A1, “METHOD FOR CONTROLLING UNDESIRED PLANTS AND PROMOTING GROWTH OF USEFUL PLANTS” (ISHIHARA SANGYO KAISHA, LTD., priority 2022, published 2025)

How the values were obtained:
Format in all cases: in vivo
[1] = tested on: waterhemp (Amaranthus tuberculatus); assay: (12) Herbicidal effect test, pot, spray at 6.0 to 8.5 leaf stage; settings: 13th day after spraying
Source text: (§1) [formula] • X: growth inhibition rate when treated with α (g/ha) of compound A, • Y: growth inhibition rate when treated with β (g/ha) of compound B, • E: growth inhibition rate expected when treated with α (g/ha) of compound A and β (g/ha) of compound B (expected value).
(§2) Upland soil was put in a 1/1,000,000 hectare pot, and seeds of waterhemp (Amaranthus tuberculatus) were sown. When waterhemp reached 6.0 to 8.5 leaf stage, a water-based suspension containing tiafenacil as the active ingredient, prepared by a conventional method for preparing a water-based suspension, and an emulsifiable concentrate containing S-metolachlor as the active ingredient (tradename: Dual Gold, manufactured by Syngenta), a wettable powder containing metribuzin as the active ingredient (tradename: SENCOR wettable powder, manufactured by Bayer Crop Science) or water dispersible granules containing pyroxasulfone as the active ingredient (tradename: Sakura, manufactured by Bayer Crop Science) were diluted with water (in an amount corresponding to 200 liter per hectare) containing 0.5 vol % of an agricultural spreader (tradename: Destiny HC, manufactured by Winfield Solutions, LLC.) and sprayed by a small spray gun (model: W-101-132G, manufactured by ANEST IWATA Corporation). On the 13th day after spraying, the state of growth of the waterhemp was visually observed, and the growth inhibition rate (%) was obtained in accordance with the evaluation standards described in the above (1) herbicidal effect test, and the results are shown in Table 12. Further, the expected value of the growth inhibition rate (%) was calculated in accordance with the Colby's formula described in the above (1) herbicidal effect test, and the results are also shown in Table 12.

[2] = tested on: Italian ryegrass (Lolium multiflorum); assay: (8) Herbicidal effect test, pot, spray at 3.0 to 3.1 leaf stage; settings: 4th day after spraying
Source text: as §1
as §2, with “Italian ryegrass (Lolium multiflorum)” for “waterhemp (Amaranthus tuberculatus)”, “Italian ryegrass” for “waterhemp”, “3.0” for “6.0”, “3.1” for “8.5”, “4th” for “13th”, “8.” for “12.”

[3] = tested on: soybean (cultivar: Enrei); assay: (23) Plant growth promotion effect test (soybean), Italian ryegrass sown, seed weight; settings: 97th day after the sowing
Source text: Upland soil was put in a 1/200,000 hectare pot, and seeds of Italian ryegrass (Lolium multiflorum) were sown. When the Italian ryegrass reached 2.5 to 3.0 leaf stage, a water-based suspension containing tiafenacil as the active ingredient, prepared by a conventional method for preparing a water-based suspension, and an emulsifiable concentrate containing S-metolachlor as the active ingredient (tradename: Dual Gold, manufactured by Syngenta), a wettable powder containing metribuzin as the active ingredient (tradename: SENCOR wettable powder, manufactured by Bayer Crop Science), water dispersible granules containing pyroxasulfone as the active ingredient (tradename: Sakura, manufactured by Bayer Crop Science), a wettable powder containing tri-allate as the active ingredient, prepared by a conventional method for preparing a wettable powder, an emulsifiable concentrate containing pethoxamid as the active ingredient (tradename: Successor 600, manufactured by Stähler Suisse SA) or an emulsifiable concentrate containing dimethenamid-P as the active ingredient (tradename: Fieldstar P emulsifiable concentrate, manufactured by BASF) were diluted with water (in an amount corresponding to 200 liter per hectare) containing 0.5 vol % of an agricultural spreader (tradename: Destiny HC, manufactured by Winfield Solutions, LLC.) and sprayed by a small spray gun (model: W-101-132G, manufactured by ANEST IWATA Corporation). Seeds of soybean (cultivar: Enrei, manufactured by Asahi Noen Seed Co., Ltd.) were sown in the pot after spraying and the soybean was cultivated. On the 97th day after the sowing, seeds were collected from the grown soybean, and their weight was measured to obtain the total weight.

[4] = tested on: soybean (cultivar: Enrei); assay: (24) Plant growth promotion effect test (soybean), undesired plants not sown; settings: 48th day after the sowing, above-ground part
Source text: Upland soil was put in a 1/500,000 hectare pot, and a water-based suspension containing tiafenacil as the active ingredient, prepared by a conventional method for preparing a water-based suspension, and an emulsifiable concentrate containing S-metolachlor as the active ingredient (tradename: Dual Gold, manufactured by Syngenta), a wettable powder containing metribuzin as the active ingredient (tradename: SENCOR wettable powder, manufactured by Bayer Crop Science), water dispersible granules containing pyroxasulfone as the active ingredient (tradename: Sakura, manufactured by Bayer Crop Science), a wettable powder containing tri-allate as the active ingredient, prepared by a conventional method for preparing a wettable powder, an emulsifiable concentrate containing pethoxamid as the active ingredient (tradename: Successor 600, manufactured by Stähler Suisse SA) or an emulsifiable concentrate containing dimethenamid-P as the active ingredient (tradename: Fieldstar P emulsifiable concentrate, manufactured by BASF) were diluted with water (in an amount corresponding to 200 liter per hectare) containing 0.5 vol % of an agricultural spreader (tradename: Destiny HC, manufactured by Winfield Solutions, LLC.) and sprayed by a small spray gun (model: W-101-132G, manufactured by ANEST IWATA Corporation). Seeds of soybean (cultivar: Enrei, manufactured by Asahi Noen Seed Co., Ltd.) were sown in the pot after spraying. On the 48th day after the sowing, the above-ground part of the soybean was reaped, and its weight was measured to obtain the total weight.

SMILES: CCc1cccc(C)c1N(C(=O)CCl)[C@@H](C)COC [S-metolachlor]
- Growth inhibition rate (%) Measured value ([1]; Dose 7.5 g/ha): 0%
- Growth inhibition rate (%) Measured value ([1]; Dose 375 g/ha): 0%
- Growth inhibition rate (%) Measured value ([1]; Dose 750 g/ha): 0%
- Growth inhibition rate (%) Measured value ([2]; Dose 281 g/ha): 7%
- Growth inhibition rate (%) Measured value ([2]; Dose 500 g/ha): 10%
- Growth inhibition rate (%) Measured value ([2]; Dose 625 g/ha): 13%
- Total weight (g) of soybean seeds ([3]; Dose 750 g/ha): 12.7 g
- Raw weight (g) of soybean ([4]; Dose 75 g/ha): 27.1 g

SMILES: COC[C@H](C)N(C(=O)CCl)c1c(C)csc1C [dimethenamid-P]
- Total weight (g) of soybean seeds ([3]; Dose 750 g/ha): 14.1 g
- Raw weight (g) of soybean ([4]; Dose 150 g/ha): 28.9 g

SMILES: CSc1nnc(C(C)(C)C)c(=O)n1N [metribuzin]
- inhibition at 9.38 g/ha ([1]; Amaranthus tuberculatus, Dose 9.38 g/ha, read-out: Growth inhibition rate (%) Measured value): 5%
- inhibition at 550 g/ha ([1]; Amaranthus tuberculatus, Dose 550 g/ha, read-out: Growth inhibition rate (%) Measured value): 37%
- inhibition at 1100 g/ha ([1]; Amaranthus tuberculatus, Dose 1100 g/ha, read-out: Growth inhibition rate (%) Measured value): 50%
- inhibition at 125 g/ha ([2]; Lolium multiflorum, Dose 125 g/ha, read-out: Growth inhibition rate (%) Measured value): 3%
- inhibition at 438 g/ha ([2]; Lolium multiflorum, Dose 438 g/ha, read-out: Growth inhibition rate (%) Measured value): 10%
- inhibition at 750 g/ha ([2]; Lolium multiflorum, Dose 750 g/ha, read-out: Growth inhibition rate (%) Measured value): 20%
- inhibition at 938 g/ha ([2]; Lolium multiflorum, Dose 938 g/ha, read-out: Growth inhibition rate (%) Measured value): 33%
- Total weight (g) of soybean seeds ([3]; Dose 18.75 g/ha): 14.2 g
- Raw weight (g) of soybean ([4]; Dose 150 g/ha): 16.1 g

SMILES: CCOCCN(C(=O)CCl)C(=C(C)C)c1ccccc1 [pethoxamid]
- Total weight (g) of soybean seeds ([3]; Dose 750 g/ha): 11.0 g
- Raw weight (g) of soybean ([4]; Dose 200 g/ha): 26.7 g

SMILES: Cn1nc(C(F)(F)F)c(CS(=O)(=O)C2=NOC(C)(C)C2)c1OC(F)F [pyroxasulfone]
- inhibition at 7.5 g/ha ([1]; Amaranthus tuberculatus, Dose 7.5 g/ha, read-out: Growth inhibition rate (%) Measured value): 10%
- inhibition at 250 g/ha ([1]; Amaranthus tuberculatus, Dose 250 g/ha, read-out: Growth inhibition rate (%) Measured value): 17%
- inhibition at 500 g/ha ([1]; Amaranthus tuberculatus, Dose 500 g/ha, read-out: Growth inhibition rate (%) Measured value): 13%
- inhibition at 188 g/ha ([2]; Lolium multiflorum, Dose 188 g/ha, read-out: Growth inhibition rate (%) Measured value): 10%
- inhibition at 375 g/ha ([2]; Lolium multiflorum, Dose 375 g/ha, read-out: Growth inhibition rate (%) Measured value): 20%
- Total weight (g) of soybean seeds ([3]; Dose 125 g/ha): 15.6 g
- Raw weight (g) of soybean ([4]; Dose 37.5 g/ha): 30.0 g

SMILES: COC(=O)CCNC(=O)C(C)Sc1cc(-n2c(=O)cc(C(F)(F)F)n(C)c2=O)c(F)cc1Cl (stereo not shown) [tiafenacil]
- Growth inhibition rate (%) Measured value ([1]; Dose 6.25 g/ha): 33%
- Growth inhibition rate (%) Measured value ([2]; Dose 6.25 g/ha): 20%
- Total weight (g) of soybean seeds ([3]; Dose 12.5 g/ha): 14.3 g
- Raw weight (g) of soybean ([4]; Dose 3 g/ha): 28.3 g

SMILES: CC(C)N(C(=O)SCC(Cl)=C(Cl)Cl)C(C)C [tri-allate]
- Total weight (g) of soybean seeds ([3]; Dose 625 g/ha): 17.0 g
- Raw weight (g) of soybean ([4]; Dose 200 g/ha): 18.2 g
